Source: US5262519A, “GRF analogs XI” (The Salk Institute for Biological Studies, priority 1991, dated 1993)
Square brackets hold non-standard residues; d marks the D form. Ends that are not written are not given here. Peptide text beside a SMILES is read from it. Nle = CCCC[C@H](N)C(=O)O

System: cells of rat pituitary glands
Assay: in vitro release of growth hormone from cultured rat pituitary cells, GH measured by radioimmunoassay
Type: cell-based
Conditions: potency for GH release relative to standard hGRF(1-40)-OH = 1.0; equimolar concentrations; 3 to 4 hours incubation; range in parentheses
Description: To determine the relative effectiveness of synthetic peptides to promote the release of growth hormone, in vitro assays are carried out using synthetic hpGRF(1-40)-OH as a standard in side-by-side comparison with equimolar concentrations of the representative analogs which have been synthesized. Cultures are used which include cells of rat pituitary glands removed some three to five days previously. Such cultures are considered optimal for the secretion of growth hormone and are used for the comparative testing, in the general manner described in Vale et al. Endocrinology, 91, 562-572 (1972) and as more particularly described in Vale et al. Endocrinology, 112, 1553-1555 (1983). Incubation with the substance to be tested is carried out for 3 to 4 hours, and aliquots of the culture medium are removed and processed to measure their contents in immunoreactive GH(ir GH) by a well-characterized radioimmunoassay.

| Compound | In Vitro Potencies |
| --- | --- |
| CCCC[C@H](NC(=O)[C@@H](NC(=O)[C@H](CC(=O)O)NC(=O)[C@H](CCC(N)=O)NC(=O)[C@H](CC(C)C)NC(=O)[C@H](CC(C)C)NC(=O)[C@H](CCCCN)NC(=O)[C@H](CCCNC(=N)N)NC(=O)[C@H](C)NC(=O)[C@H](CO)NC(=O)[C@H](CC(C)C)NC(=O)[C@H](CCC(N)=O)NC(=O)CNC(=O)[C@H](CC(C)C)NC(=O)[C@@H](NC(=O)[C@H](CCCCN)NC(=O)[C@H](CCCNC(=N)N)NC(=O)[C@H](Cc1ccc(O)cc1)NC(=O)[C@H](CO)NC(=O)[C@H](C)NC(=O)[C@@H](NC(=O)[C@H](Cc1ccccc1)NC(=O)[C@@H](NC(=O)[C@H](C)NC(=O)[C@H](CC(=O)O)NC(=O)[C@H](C)NC(=O)[C@@H](N)Cc1ccc(O)cc1)[C@@H](C)CC)[C@@H](C)O)C(C)C)[C@@H](C)CC)C(=O)N[C@@H](CO)C(=O)N[C@@H](CCCNC(=N)N)C(N)=O [Example No. 1, [Ala^8, Nle^27]-hGRF(1-29)-NH2] (H-YADAIFTASYRKVLGQLSARKLLQDI[Nle]SR-NH2) | 2.143(1.178-4.065) |
| CCCC[C@H](NC(=O)[C@@H](NC(=O)[C@H](CC(=O)O)NC(=O)[C@H](C)NC(=O)[C@H](CC(C)C)NC(=O)[C@H](CC(C)C)NC(=O)[C@H](CCCCN)NC(=O)[C@H](CCCNC(=N)N)NC(=O)[C@H](C)NC(=O)[C@H](CO)NC(=O)[C@H](CC(C)C)NC(=O)[C@H](CCC(N)=O)NC(=O)CNC(=O)[C@H](CC(C)C)NC(=O)[C@@H](NC(=O)[C@H](CCCCN)NC(=O)[C@H](CCCNC(=N)N)NC(=O)[C@H](Cc1ccc(O)cc1)NC(=O)[C@H](CO)NC(=O)[C@H](CC(N)=O)NC(=O)[C@@H](NC(=O)[C@H](Cc1ccccc1)NC(=O)[C@@H](NC(=O)[C@H](C)NC(=O)[C@H](CC(=O)O)NC(=O)[C@H](C)NC(=O)[C@@H](N)Cc1ccc(O)cc1)[C@@H](C)CC)[C@@H](C)O)C(C)C)[C@@H](C)CC)C(=O)N[C@@H](CO)C(=O)N[C@@H](CCCNC(=N)N)C(N)=O [Example No. 3, [Ala^24, Nle^27]-hGRF(1-29)-NH2] (H-YADAIFTNSYRKVLGQLSARKLLADI[Nle]SR-NH2) | 1.345(0.595-2.068) |
| CCCC[C@H](NC(=O)[C@@H](NC(=O)[C@H](C)NC(=O)[C@H](CCC(N)=O)NC(=O)[C@H](CC(C)C)NC(=O)[C@H](CC(C)C)NC(=O)[C@H](CCCCN)NC(=O)[C@H](CCCNC(=N)N)NC(=O)[C@H](C)NC(=O)[C@H](CO)NC(=O)[C@H](CC(C)C)NC(=O)[C@H](CCC(N)=O)NC(=O)CNC(=O)[C@H](CC(C)C)NC(=O)[C@@H](NC(=O)[C@H](CCCCN)NC(=O)[C@H](CCCNC(=N)N)NC(=O)[C@H](Cc1ccc(O)cc1)NC(=O)[C@H](CO)NC(=O)[C@H](CC(N)=O)NC(=O)[C@@H](NC(=O)[C@H](Cc1ccccc1)NC(=O)[C@@H](NC(=O)[C@H](C)NC(=O)[C@H](CC(=O)O)NC(=O)[C@H](C)NC(=O)[C@@H](N)Cc1ccc(O)cc1)[C@@H](C)CC)[C@@H](C)O)C(C)C)[C@@H](C)CC)C(=O)N[C@@H](CO)C(=O)N[C@@H](CCCNC(=N)N)C(N)=O [Example No. 4, [Ala^25, Nle^27]-hGRF(1-29)-NH2] (H-YADAIFTNSYRKVLGQLSARKLLQAI[Nle]SR-NH2) | 1.34(0.837-2.190) |
| CC[C@H](C)[C@H](NC(=O)[C@H](C)NC(=O)[C@H](CC(=O)O)NC(=O)[C@H](C)NC(=O)[C@@H](N)Cc1ccc(O)cc1)C(=O)N[C@@H](Cc1ccccc1)C(=O)N[C@H](C(=O)N[C@@H](CC(N)=O)C(=O)N[C@@H](CO)C(=O)N[C@@H](Cc1ccc(O)cc1)C(=O)N[C@@H](CCCNC(=N)N)C(=O)N[C@@H](CCCCN)C(=O)N[C@H](C(=O)N[C@@H](CC(C)C)C(=O)NCC(=O)N[C@@H](CCC(N)=O)C(=O)N[C@@H](CC(C)C)C(=O)N[C@@H](CO)C(=O)N[C@@H](C)C(=O)N[C@@H](CCCNC(=N)N)C(=O)N[C@@H](CCCCN)C(=O)N[C@@H](CC(C)C)C(=O)N[C@@H](CC(C)C)C(=O)N[C@@H](CCC(N)=O)C(=O)N[C@@H](CC(=O)O)C(=O)N[C@H](C(=O)N[C@@H](CCSC)C(=O)N[C@@H](CO)C(=O)N[C@@H](CCCNC(=N)N)C(=O)N[C@@H](CCC(N)=O)C(=O)N[C@@H](CCC(N)=O)C(=O)NCC(=O)N[C@@H](CCC(=O)O)C(=O)N[C@@H](CO)C(=O)N[C@@H](CC(N)=O)C(=O)N[C@@H](CCC(N)=O)C(=O)N[C@@H](CCC(=O)O)C(=O)N[C@@H](CCCNC(=N)N)C(=O)NCC(=O)N[C@@H](C)C(=O)O)[C@@H](C)CC)C(C)C)[C@@H](C)O [hGRF(1-40)-OH, reference compound] | 1.0 |
| [Ala^16, Nle^27 ]-hGRF(1-29)-NH2 (YADAIFTNSYRKVLGALSARKLLQDI[Nle]SR-NH2; N-terminus assumed; SMILES CCCC[C@H](NC(=O)[C@@H](NC(=O)[C@H](CC(=O)O)NC(=O)[C@H](CCC(N)=O)NC(=O)[C@H](CC(C)C)NC(=O)[C@H](CC(C)C)NC(=O)[C@H](CCCCN)NC(=O)[C@H](CCCNC(=N)N)NC(=O)[C@H](C)NC(=O)[C@H](CO)NC(=O)[C@H](CC(C)C)NC(=O)[C@H](C)NC(=O)CNC(=O)[C@H](CC(C)C)NC(=O)[C@@H](NC(=O)[C@H](CCCCN)NC(=O)[C@H](CCCNC(=N)N)NC(=O)[C@H](Cc1ccc(O)cc1)NC(=O)[C@H](CO)NC(=O)[C@H](CC(N)=O)NC(=O)[C@@H](NC(=O)[C@H](Cc1ccccc1)NC(=O)[C@@H](NC(=O)[C@H](C)NC(=O)[C@H](CC(=O)O)NC(=O)[C@H](C)NC(=O)[C@@H](N)Cc1ccc(O)cc1)[C@@H](C)CC)[C@@H](C)O)C(C)C)[C@@H](C)CC)C(=O)N[C@@H](CO)C(=O)N[C@@H](CCCNC(=N)N)C(N)=O) [Example No. 2] | 1.502(0.727-2.859) |
